The results in this text go back to patent publication US11016062B2, “System and method of measuring cell viability and growth” (University of South Florida, priority 2015, dated 2021).

SMILES strings stand for the structures.

One assay has as its system BT474-SCTs. The assay can be described thus: Sensitivity of BT474 single cell-line tumoroids (SCTs) on PNS to lapatinib, PrestoBlue cell viability. The following applies: Homo sapiens, BT-474, BT474-SCTs cultured on PNS, lapatinib 72 h. It counts as cell-based. The protocol: (§1) FIGS. 9A-C are a series of images depicting growth of BT474 derived SCTs (A) and MCTs (B) for 6 days on PNS; tumoroids are stained with calcein AM/EthD-1. Confocal (merged z-stacked) images showing presence of ECs (vWF, green cells), CAFs (SMA positive, red cells) and DAPI (cell nuclei) in BT474-MCTs imaged by confocal microscopy (merged z-stacked images). (C) Differential response of BT474-SCTs and -MCTs to lapatinib. On day 2 after co-culture, BT474 cells were treated with increasing concentrations (μM) of lapatinib for 72 h; cell viability was measured by PrestoBlue assay.
The inventors examined sensitivity of BT474-SCTs and -MCTs to lapatinib. […] These include, IL-6, IL-8, vascular endothelial growth factor (VEGF), monocyte chemotactic protein 1 (MCP-1), platelet derived growth factor BB (PDGF-BB), dickkopf-1 (DKK-1, inhibitor of Wnt signaling pathway), osteoprotegerin (OPG, a negative regulator of bone remodeling) and MMP-3, which have been implicated in tumor metastasis, angiogenesis, cancer stem cell amplification or drug resistance. In addition, five tumoroid biomarkers that are found expressed abundantly in MCTs (vs SCTs) and can be considered as predictors of clinical efficacy for lapatinib, included, a) marker for cell proliferation: Ki67, and b) stromal derived factors: IL-6, MCP-1, VEGF and DKK-1 (FIG. 9D).

A further assay concerns BT474-MCTs. The assay can be described thus: Sensitivity of BT474 multi-cell tumoroids (MCTs, co-culture with ECs and CAFs) on PNS to lapatinib, PrestoBlue cell viability. It counts as cell-based. The following applies: Homo sapiens, BT-474, BT474-MCTs in the presence of ECs and CAFs on PNS, lapatinib 72 h. The protocol:
as §1
The inventors established conditions to co-culture tumor cells with ECs and CAFs to allow formation of robust MCTs. […] The presence of CAFs and ECs in the MCTs was confirmed by immunohistochemistry using anti-smooth muscle actin (SMA) and antivon Willebrand factor (vWF) antibodies for CAFs and ECs, respectively, followed by confocal microscopy (FIG. 9B). On day 5 after co-culture, CAFs were found dispersed throughout the MCT, whereas ECs were found mostly on the edge of the MCT.
The inventors examined sensitivity of BT474-SCTs and -MCTs to lapatinib. […]

As a reminder, the IC50 is the midpoint of a concentration-inhibition curve. Consider `CS(=O)(=O)CCNCc1ccc(-c2ccc3ncnc(Nc4ccc(OCc5cccc(F)c5)c(Cl)c4)c3c2)o1` [lapatinib], for which the IC50 in the assay with BT474-SCTs is under 2.5 µM; in the assay on BT474-MCTs it was over 10 µM.
